This is an account of results in patent US4532254A, “Inhibitor of aldose reductase” (Kaken Pharmaceutical Co., Ltd., priority 1983, dated 1985).

Like-named read-outs stand apart in the source and are kept apart here.

Test [1] has as its target T1, bovine lens AR (Bos taurus, UniProt P16116).
T1 construct: Bovine eyes were obtained from a local abattoir, and the lenses were removed and frozen until needed; from tissue; host or cells: bovine lens from a local abattoir; enzyme purified by ammonium sulfate, DEAE-Sephacel, Matrex gel red A and Sephadex G-75
Kind of test: Inhibition of bovine lens aldose reductase (BLAR), NADPH oxidation at 340 nm. Format: biochemical. Particulars: for inhibition at 10 µM: 10^-5 M; for inhibition at 10 µM / inhibition at 1 µM / inhibition at 0.1 µM: read-out: Inhibition against enzyme activity (%); for inhibition at 1 µM: 10^-6 M; for inhibition at 0.1 µM: 10^-7 M; for IC50: Table 2, IC50 in M multiplied by 10^6. The procedure:
(§1) The inhibitory activities against AR of LARI-1, LARI-2, LARI-3 and LARI-4 were determined according to the following method.
(§2) In Recipe Example, the followings were used. NADPH was purchased from the Oriental Yeast Co., Ltd. DL-Glyceraldehyde and quercitrin were purchased from Nakarai Chemicals, Ltd. DEAE-Sephacel and Sephadex G-75 were purchased from Pharmacia Fine Chemicals. Matrex gel red A was purchased from the Amicon Co. All other chemicals were of the highest grade commercially available.
(§3) Rat lenses were removed from eyes of rats of the Wistar strain weighing 200 to 250 g. Bovine eyes were obtained from a local abattoir, and the lenses were removed and frozen until needed.
(§4) Usually a 10^-3 M solution was prepared and diluted to the desired concentrations with propylene glycol. To the reaction mixture were added aliquots of the diluted solution to yield concentrations of 10^-8 M to 10^-5 M and a propylene glycol concentration of 1%.
(§5) AR assays were conducted according to the procedure of Hayman and Kinoshita (J. Biol. Chem. 240, p. 877 (1965)), except for the addition of ammonium sulfate instead of lithium sulfate to the reaction mixture. Assays were performed at 30° C. in 0.1M sodium phosphate buffer (pH 6.2) containing 0.4M ammonium sulfate, 10 mM DL-glyceraldehyde, 0.16 mM NADPH and the enzyme (0.010 to 0.016 unit) in a total volume of 1.0 ml. The effects of inhibitors on the enzyme activity were determined in the reaction mixture containing 10 μl. of each inhibitor solution at the desired concentrations. The blank reference to correct for non-specific reduction of NADPH contained all of the above compounds except DL-glyceraldehyde. The reaction was initiated by the addition of DL-glyceraldehyde, and the rate of NADPH oxidation was followed by recording the decrease in absorbance at 340 nm on a Gilford model 250 spectrophotometer.
(§6) BLAR and RLAR were purified according to the method of Inagaki et al (Archs Biochem. Biophys. 216, p. 337 (1982)). Briefly, a 40 to 75% ammonium sulfate fraction was subjected to chromatography on DEAE-Sephacel, followed by two column chromatographic steps, i.e. affinity chromatography using Matrex gel red A and gel filtration on Sephadex G-75.
(§7) The concentration of inhibitor required for eliciting a 50% inhibition (IC50) was determined according to the method of Kador et al (Docum. Ophthal. Proc. Series 18, p. 117 (1979)).

In test [2] the target is T2, rat lens AR (Rattus norvegicus, UniProt P07943).
T2 construct: Rat lenses were removed from eyes of rats of the Wistar strain; from tissue; host or cells: lens of Wistar rats; enzyme purified by ammonium sulfate, DEAE-Sephacel, Matrex gel red A and Sephadex G-75
Kind of test: Inhibition of rat lens aldose reductase (RLAR), NADPH oxidation at 340 nm. Particulars: for inhibition at 10 µM: 10^-5 M; for inhibition at 10 µM / inhibition at 1 µM / inhibition at 0.1 µM: read-out: Inhibition against enzyme activity (%); for inhibition at 1 µM: 10^-6 M; for inhibition at 0.1 µM: 10^-7 M. The test is classed as biochemical, rat (Wistar strain). The procedure:
as §1, §2, §3, §4, §5, §6, §7

Where [3] appears, read: Table 2, IC50 in M multiplied by 10^6, read-out: IC50 (M) × 10^6.
Setting [4] is: read-out: IC50 (inhibition of RLAR).

On to `COc1c(O)c(OC)c2c(=O)cc(-c3ccc(O)c(O)c3)oc2c1OC` [LARI-1, 3',4',6-trihydroxy-5,7,8-trimethoxyflavone], for which, in test [1], the inhibition at 10 µM is 100%, the inhibition at 1 µM turned out to be 91%, the inhibition at 0.1 µM came out at 35% and half-maximal inhibition (IC50) was put at 180 nM. In test [2], the inhibition at 10 µM is 96%, the inhibition at 1 µM was 92% and the inhibition at 0.1 µM was 73%. Also, the concentration for half-maximal inhibition (IC50) in test [2] (setting [3]) amounted to 3.6e-08 M. For the same compound, the IC50 in test [2] (setting [4]) stood at 3.6e-08 M.

Regarding `COc1c(OC)c(OC)c2c(=O)cc(-c3ccc(O)cc3)oc2c1OC` [LARI-2, 4'-hydroxy-5,6,7,8-tetramethoxyflavone], the inhibition at 10 µM in test [1] turned out to be 94%; in test [2], 91%. The inhibition at 1 µM in test [1] came to 80%; in test [2], 81%. Moreover, the inhibition at 0.1 µM in test [1] was 24%; in test [2], 44%. The IC50 was found to be 290 nM in test [1], 1.6e-07 M in test [2] (setting [3]) and 1.6e-07 M in test [2] (setting [4]).

In the case of `COc1c(O)c(OC)c2c(=O)cc(-c3ccc(O)cc3)oc2c1OC` [LARI-3, 4',6-dihydroxy-5,7,8-trimethoxyflavone], in test [1], the inhibition at 10 µM came out at 95%, the inhibition at 1 µM worked out at 70%, the inhibition at 0.1 µM was determined as 18% and it took 420 nM to reach half-maximal inhibition (IC50). In test [2], the inhibition at 10 µM worked out at 92%, the inhibition at 1 µM was found to be 74% and the inhibition at 0.1 µM turned out to be 36%. In test [2] (setting [3]), the IC50 was 2.5e-07 M. Also, the IC50 in test [2] (setting [4]) turned out to be 2.5e-07 M.

What is called inhibition is the change of the read-out against control, counted positive when it falls. Broadly, the IC50 is the concentration that gives 50% inhibition.
